Substitutions are numbered along the chain they refer to. Blank lines part the entries; values can stand above or below the compound they belong to.
What was measured:
AR protein [1] = molecular target: T1, AR protein (Homo sapiens, UniProt P10275); assay: AR degradation in VCaP cell line; type: cell-based; conditions: for reduction of AR protein level (degradation kinetics) / Dmax: VCaP; for reduction of AR protein level (degradation kinetics): 1 h; for Dmax: read-out: Dmax, AR degradation in VCaP cell line, VCaP cell line, 24 h treatment, Western blotting
T1 sequence (P10275 1-920): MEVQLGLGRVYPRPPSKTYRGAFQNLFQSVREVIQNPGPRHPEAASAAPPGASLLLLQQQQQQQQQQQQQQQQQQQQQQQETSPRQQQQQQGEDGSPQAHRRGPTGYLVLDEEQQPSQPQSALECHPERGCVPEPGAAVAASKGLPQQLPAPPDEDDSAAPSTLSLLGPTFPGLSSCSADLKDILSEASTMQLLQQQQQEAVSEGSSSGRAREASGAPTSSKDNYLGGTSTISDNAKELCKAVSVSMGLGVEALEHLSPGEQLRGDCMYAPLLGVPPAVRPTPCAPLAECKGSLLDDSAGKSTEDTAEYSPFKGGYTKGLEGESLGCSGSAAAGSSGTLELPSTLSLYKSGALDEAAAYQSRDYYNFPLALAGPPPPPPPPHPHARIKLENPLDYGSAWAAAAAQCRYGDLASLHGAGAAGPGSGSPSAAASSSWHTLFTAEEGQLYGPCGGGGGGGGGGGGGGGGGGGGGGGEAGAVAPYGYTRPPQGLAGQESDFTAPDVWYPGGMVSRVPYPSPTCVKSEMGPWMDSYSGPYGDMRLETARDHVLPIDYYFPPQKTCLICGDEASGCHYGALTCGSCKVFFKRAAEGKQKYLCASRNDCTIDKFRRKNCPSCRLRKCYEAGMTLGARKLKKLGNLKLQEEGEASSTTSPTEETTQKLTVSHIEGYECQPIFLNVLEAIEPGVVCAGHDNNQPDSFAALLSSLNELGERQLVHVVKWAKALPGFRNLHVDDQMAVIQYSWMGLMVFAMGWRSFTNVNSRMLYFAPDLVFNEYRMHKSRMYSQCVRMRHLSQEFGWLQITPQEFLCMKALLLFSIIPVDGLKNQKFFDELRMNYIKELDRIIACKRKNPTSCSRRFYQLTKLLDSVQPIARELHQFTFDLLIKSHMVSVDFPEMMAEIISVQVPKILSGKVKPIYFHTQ

AR T878A mutant protein = molecular target: T2, AR T878A mutant protein (Homo sapiens, UniProt P10275, T878A); conditions: LNCaP, 1 h
T2 sequence (P10275 1-920 T878A): T1 sequence (P10275 1-920) with T878A

Oral exposures in mice = type: in vivo; conditions: oral gavage, non-tumor-bearing male mice (Table S1)
Pharmacokinetics in mice = type: in vivo; conditions: male, mouse, iv, 1 mg/kg
AR protein [2] = molecular target: T1, AR protein; conditions: single oral administration 20 mg/kg, 6 and 24 h time-points, Western blotting

SMILES: CN(c1ccc(C#N)c(Cl)c1)[C@H]1CC[C@H](NC(=O)c2ccc(N3CC(CN4CCN(c5ccc6c(c5)C(=O)N(C5CCC(=O)NC5=O)C6=O)CC4)C3)cc2)CC1 (stereo partly drawn) [Compound 44, N-(1R,4R)-4-(((3-Chloro-4-cyanophenyl)(methyl)amino)-cyclohexyl)-4-(3-((4-(2-(2,6-dioxopiperidin-3-yl)-1,3-dioxoisoindolin-5-yl)piperazin-1-yl)methyl)azetidin-1-yl)benzamide]
- reduction of AR protein level (degradation kinetics) (AR protein [1]): effectively reduce
- reduction of AR protein level (degradation kinetics) (AR T878A mutant protein): effectively reduce

SMILES: N#Cc1ccc(O[C@H]2CC[C@H](NC(=O)c3ccc(NCCCCCNc4ccc5c(c4)C(=O)N(C4CCC(=O)NC4=O)C5=O)cc3)CC2)cc1Cl (stereo partly drawn) [Compound 13, N-((1R,4R)-4-(3-Chloro-4-cyanophenoxy)cyclohexyl)-4-((5-((2-(2,6-dioxopiperidin-3-yl)-1,3-dioxoisoindolin-5-yl)amino)pentyl)-amino)benzamide]
- oral exposures in mice (Oral exposures in mice): very low

SMILES: CN(c1ccc(C#N)c(Cl)c1)[C@H]1CC[C@H](NC(=O)c2ccc(N3CCC(N4CCN(c5ccc6c(c5)C(=O)N(C5CCC(=O)NC5=O)C6=O)CC4)CC3)cc2)CC1 (stereo partly drawn) [Compound 35]
- clearance (Pharmacokinetics in mice; plasma): 5 mL/min/kg

SMILES: CN(c1ccc(C#N)c(Cl)c1)[C@H]1CC[C@H](NC(=O)c2ccc(N3CC(N4CCN(c5ccc6c(c5)C(=O)N(C5CCC(=O)NC5=O)C6=O)CC4)C3)cc2)CC1 (stereo partly drawn) [Compound 45, N-(1R,4R)-4-(((3-Chloro-4-cyanophenyl)(methyl)amino)-cyclohexyl)-4-(3-(4-(2-(2,6-dioxopiperidin-3-yl)-1,3-dioxoisoindolin-5-yl)piperazin-1-yl)azetidin-1-yl)benzamide]
- reduction of AR protein level (degradation kinetics) (AR protein [1]): effectively reduce
- reduction of AR protein level (degradation kinetics) (AR T878A mutant protein): effectively reduce
- Vd (Pharmacokinetics in mice; in vivo): 1.8 to 2.1 L/kg
- clearance (Pharmacokinetics in mice; in vivo): 3.33 to 5 mL/min/kg
- half-life (Pharmacokinetics in mice; in vivo): 5.5 to 7.5 h
- clearance (Pharmacokinetics in mice; plasma): 3.33 mL/min/kg
- reduction of AR protein level in VCaP tumor tissue (AR protein [2]): effective

SMILES: CN(c1ccc(C#N)c(Cl)c1)[C@H]1CC[C@H](NC(=O)c2ccc(N3CCC(CN4CCN(c5ccc6c(c5)C(=O)N(C5CCC(=O)NC5=O)C6=O)CC4)CC3)cc2)CC1 (stereo partly drawn) [Compound 40, N-(1R,4R)-4-(((3-Chloro-4-cyanophenyl)(methyl)amino)-cyclohexyl)-4-(4-((4-(2-(2,6-dioxopiperidin-3-yl)-1,3-dioxoisoindolin-5-yl)piperazin-1-yl)methyl)piperidin-1-yl)benzamide]
- reduction of AR protein level (degradation kinetics) (AR protein [1]): effectively reduce
- reduction of AR protein level (degradation kinetics) (AR T878A mutant protein): effectively reduce

SMILES: N#Cc1ccc(O[C@H]2CC[C@H](NC(=O)c3ccc(N4CCC(N5CCN(c6ccc7c(c6)C(=O)N(C6CCC(=O)NC6=O)C7=O)CC5)CC4)cc3)CC2)cc1Cl (stereo partly drawn) [Compound 26, N-(1R,4R)-4-((3-Chloro-4-cyanophenoxy)cyclohexyl)-4-(4-(4-(2-(2,6-dioxopiperidin-3-yl)-1,3-dioxoisoindolin-5-yl)piperazin-1-yl)-piperidin-1-yl)benzamide]
- reduction of AR protein level (degradation kinetics) (AR protein [1]): effectively reduce
- reduction of AR protein level (degradation kinetics) (AR T878A mutant protein): effectively reduce
- clearance (Pharmacokinetics in mice; plasma): 6.67 mL/min/kg

SMILES: CN(c1ccc(C#N)c(Cl)c1)[C@H]1CC[C@H](NC(=O)c2ccc(N3CCN(C4CCN(c5ccc6c(c5)C(=O)N(C5CCC(=O)NC5=O)C6=O)CC4)CC3)cc2)CC1 (stereo partly drawn) [Compound 41, N-(1R,4R)-4-(((3-Chloro-4-cyanophenyl)(methyl)amino)-cyclohexyl)-4-(4-(1-(2-(2,6-dioxopiperidin-3-yl)-1,3-dioxoisoindolin-5-yl)piperidin-4-yl)piperazin-1-yl)benzamide]
- reduction of AR protein level (degradation kinetics) (AR protein [1]): effectively reduce
- reduction of AR protein level (degradation kinetics) (AR T878A mutant protein): effectively reduce
- reduction of AR protein level in VCaP tumor tissue (AR protein [2]): effective

SMILES: N#Cc1ccc(O[C@H]2CC[C@H](NC(=O)c3ccc(NCCCNc4ccc5c(c4)C(=O)N(C4CCC(=O)NC4=O)C5=O)cc3)CC2)cc1Cl (stereo partly drawn) [Compound 11, N-((1R,4R)-4-(3-Chloro-4-cyanophenoxy)cyclohexyl)-4-((3-((2-(2,6-dioxopiperidin-3-yl)-1,3-dioxoisoindolin-5-yl)amino)propyl)-amino)benzamide]
- oral exposures in mice (Oral exposures in mice): very low

SMILES: CC(O)(CS(=O)(=O)c1ccc(N2CCN(C3CCN(c4ccc5c(c4)C(=O)N(C4CCC(=O)NC4=O)C5=O)CC3)CC2)cc1)C(=O)Nc1ccc(C#N)c(C(F)(F)F)c1 (stereo not drawn) [Compound 46, N-(4-Cyano-3-(trifluoromethyl)phenyl)-3-((4-(4-(1-(2-(2,6-dioxopiperidin-3-yl)-1,3-dioxoisoindolin-5-yl)piperidin-4-yl)piperazin-1-yl)phenyl)sulfonyl)-2-hydroxy-2-methylpropanamide]
- Dmax (AR protein [1]): < 32%

Second part, the compound after the results:

- Dmax, AR degradation in VCaP cell line (AR protein [1]; VCaP cell line, 24 h treatment, Western blotting): 54%
SMILES: N#Cc1ccc(O[C@H]2CCC[C@H](NC(=O)c3ccc(N4CCC(N5CCN(c6ccc7c(c6)C(=O)N(C6CCC(=O)NC6=O)C7=O)CC5)CC4)cc3)CCC2)cc1Cl (stereo partly drawn) [Compound 31, N-(1R,5R)-5-((3-Chloro-4-cyanophenoxy)cyclooctyl)-4-(4-(4-(2-(2,6-dioxopiperidin-3-yl)-1,3-dioxoisoindolin-5-yl)piperazin-1-yl)-piperidin-1-yl)benzamide]

- reduction of AR protein level (degradation kinetics) (AR protein [1]): effectively reduce
- reduction of AR protein level (degradation kinetics) (AR T878A mutant protein): effectively reduce
SMILES: N#Cc1ccc(O[C@H]2CC[C@H](NC(=O)c3ccc(N4CCN(CC5CN(c6ccc7c(c6)C(=O)N(C6CCC(=O)NC6=O)C7=O)C5)CC4)cc3)CC2)cc1Cl (stereo partly drawn) [Compound 27, N-(1R,4R)-4-((3-Chloro-4-cyanophenoxy)cyclohexyl)-4-(4-((l-(2-(2,6-dioxopiperidin-3-yl)-1,3-dioxoisoindolin-5-yl)azetidin-3-yl)-methyl)piperazin-1-yl)benzamide]

- effect in reducing AR protein (in words) (AR protein [1]; VCaP cell line): little or no effect
SMILES: N#Cc1ccc(OC2CCN(C(=O)c3ccc(N4CCC(N5CCN(c6ccc7c(c6)C(=O)N(C6CCC(=O)NC6=O)C7=O)CC5)CC4)cc3)CC2)cc1Cl (stereo not drawn) [Compound 32, 2-Chloro-4-((1-(4-(4-(4-(2-(2,6-dioxopiperidin-3-yl)-1,3-dioxoisoindolin-5-yl)piperazin-1-yl)piperidin-1-yl)benzoyl)piperidin-4-yl)-oxy)benzonitrile]

- Dmax (AR protein [1]): < 32%
SMILES: N#Cc1ncc(N2C(=O)C3(CCC3)N(c3ccc(C(=O)N4CCN(C5CCN(c6ccc7c(c6)C(=O)N(C6CCC(=O)NC6=O)C7=O)CC5)CC4)c(F)c3)C2=S)cc1C(F)(F)F (stereo not drawn) [Compound 48, 5-(5-(4-(4-(1-(2-(2,6-Dioxopiperidin-3-yl)-1,3-dioxoisoindolin-5-yl)piperidin-4-yl)piperazine-1-carbonyl)-3-fluorophenyl)-8-oxo-6-thioxo-5,7-diazaspiro[3.4]octan-7-yl)-3-(trifluoromethyl)-picolinonitrile]

- effect in reducing AR protein (in words) (AR protein [1]; VCaP cell line): little or no effect
SMILES: N#Cc1ccc(O[C@@H]2CCCN(C(=O)c3ccc(N4CCC(N5CCN(c6ccc7c(c6)C(=O)N(C6CCC(=O)NC6=O)C7=O)CC5)CC4)cc3)CC2)cc1Cl (stereo partly drawn) [Compound 33]

Source: publication PMC8855934 (Journal of medicinal chemistry, 2021)
